Experimental data published in patent US20240352309A1, “FLUORESCENT DYE, AND PREPARATION METHOD THEREFOR AND USE THEREOF” (FLUORESCENCE DIAGNOSIS (SHANGHAI) BIOTECH COMPANY LTD., priority 2021, published 2024).

Experiments:
[1] = Fluorescence emission in glycerol and methanol (Test Example 1); assay type: physicochemical
Experimental: The fluorescent dye (molecular rotors) prepared in Examples dye1-dye42 were dissolved in DMSO each to prepare a mother solution with a concentration of 1×10^−2 M, and each mother solution was added to glycerol and methanol respectively and was mixed well, and a solution with a final concentration of 1×10^−5 M was prepared.

[2] = Emission spectra in glycerol, wavelength adjustment (Test Example 3); assay type: physicochemical; details: 1×10^−5 M, dye13 vs dye12, ring sulfur turned into nitrogen
Experimental: The dye5, dye6, dye11, dye12, dye13, dye14, dye39 and dye42 were added into glycerol to prepare a solution with a final concentration of 1×10^−5 M, fluorescent dyes were excited with corresponding maximum excitation wavelength so as to obtain the emission spectra, and some of the emission spectra were normalized.

[3] = system: RNA aptamer in stable cell line (293T/17); assay: Flow detection of cells expressing RNA aptamer (Test Example 6); assay type: cell-based; details: 1 μM dye in PBS, 5 minutes

For CN(CCO)c1cc2sc(/C=C3\NC(=S)NC3=O)cc2s1 [dye13], the “Fluorescence intensity ratio in glycerol and methanol” value ([1]; 1×10^−5 M in glycerol vs methanol, maximum excitation wavelength) was 874, the Emission wavelength ([1]; 1×10^−5 M, excited at maximum excitation wavelength of each dye) was 630 nm and the “shortening of emission wavelength” value [2] was 20 nm. For the same molecule, the “dye background fluorescence before binding” value [3] was “very low” and the “fluorescence after binding to RNA aptamer in cells” value [3] was “notably activated”.
